Experimental data taken from patent US10844044B2 (Vanderbilt University, priority 2018, dated 2020).
Like-named read-outs stand apart in the source and are kept apart here.

How the values were obtained:
[1] = system: MV4:11 human cancer cell lines; assay: Anti-proliferative activity, CellTiter-Glo viability assay, 7 day protocol; assay type: cell-based; details: MV4:11 cells, 7 day incubation, read-out: GI50 on cellular proliferation of MV4:11 human cancer cell lines
Outline: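 Luminescent CellTiter-Glo readout after 7-day compound exposure of MV4:11 cells plated at 3600 cells/ml (final DMSO 0.1%). GI50 derived from three biological × three technical replicates, reported as mean ± S.E.M.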

WDR5 = WDR5 (Homo sapiens (Human), UniProt P61964); assay: TR-FRET binding assay (displacement of 10mer-Thr-FAM probe from WDR5)
[2] = read-out: Ki for Inhibition of WDR5 by TR-FRET assay, TR-FRET, 10mer-Thr-FAM probe, WDR5-His tag 2 nM, pH 7.0
[3] = read-out: Ki for Inhibition of WDR5 by TR-FRET assay

Compound | GI50 ([1]; Homo sapiens, MV4-11, 168 h) [nM] | Ki (WDR5; [2]) [nM] | Ki (WDR5; [3]) [nM] | Ki (WDR5) [nM] | GI50 [1] [nM]
CCOc1c(C(=O)N[C@H](c2ccc(F)c(C)c2)C2CC2)cc(Cn2ccn(C)c2=N)cc1-c1cn(C)nc1C(F)(F)F [Example 210, (S)—N-(Cyclopropyl(4-fluoro-3-methylphenyl)methyl)-2-ethoxy-5-((2-iminio-3-methyl-2,3-dihydro-1H-imidazol-1-yl)methyl)-3-(1-methyl-3-(trifluoromethyl)-1H-pyrazol-4-yl)benzamide] | < 100 | < 0.1 |  |  | 
COc1cc([C@@H](NC(=O)c2cc(CN3CCCC3=N)cc(-c3cn(C)nc3C(F)(F)F)c2)C2CC2)ccc1F [Example 339, (S)—N-(Cyclopropyl(4-fluoro-3-methoxyphenyl)methyl)-3-((2-iminopyrrolidin-1-yl)methyl)-5-(1-methyl-3-(trifluoromethyl)-1H-pyrazol-4-yl)benzamide] | 100 |  | < 0.1 |  | 
Cc1ccn(Cc2cc(C(=O)N[C@H](c3ccc(F)c(C)c3)C3CC3)cc(-c3cccnc3C(F)(F)F)c2)c(=N)c1 [Example 344, (S)—N-(Cyclopropyl(4-fluoro-3-methylphenyl)methyl)-3-((2-imino-4-methylpyridin-1(2H)-yl)methyl)-5-(2-(trifluoromethyl)pyridin-3-yl)benzamide] | 680 |  | 0.48 |  | 
CCOc1c(C(=O)N[C@H](c2ccc(F)c(C)c2)C2CC2)cc(CN2CCOC2=N)cc1-c1cn(C)nc1C(F)(F)F [Example 303, (S)—N-(Cyclopropyl(4-fluoro-3-methylphenyl)methyl)-2-ethoxy-5-((2-iminooxazolidin-3-yl)methyl)-3-(1-methyl-3-(trifluoromethyl)-1H-pyrazol-4-yl)benzamide] | < 100 | < 0.1 |  |  | 
Cn1ccn(Cc2cc(C(=O)N[C@H](c3ccc(F)c(F)c3)C3CC3)cc(-c3cccnc3C(F)(F)F)c2)c1=N [Example 189, (S)—N-(Cyclopropyl(3,4-difluorophenyl)methyl)-3-((2-imino-3-methyl-2,3-dihydro-1H-imidazol-1-yl)methyl)-5-(2-(trifluoromethyl)pyridin-3-yl)benzamide] | 120 | < 0.1 |  |  | 
Cc1cc([C@@H](NC(=O)c2cc(Cn3ccn(C)c3=N)cc(-c3cccnc3C(F)(F)F)c2F)C2CC2)ccc1F [Example 131, (S)—N-(Cyclopropyl(4-fluoro-3-methylphenyl)methyl)-2-fluoro-5-((2-imino-3-methyl-2,3-dihydro-1H-imidazol-1-yl)methyl)-3-(2-(trifluoromethyl)pyridin-3-yl)benzamide] | 140 | < 0.1 |  |  | 
Cc1cc([C@@H](NC(=O)c2cc(CN3CCN(C)C3=N)cc(-c3cn(C(C)C)nc3C(F)(F)F)c2)C2CC2)ccc1F [Example 215, (S)—N-(Cyclopropyl(4-fluoro-3-methylphenyl)methyl)-3-((2-imino-3-methylimidazolidin-1-yl)methyl)-5-(1-isopropyl-3-(trifluoromethyl)-1H-pyrazol-4-yl)benzamide] | < 100 |  |  | < 0.1 | 
COc1cc(CNC(=O)c2cc(Cn3ccn(C)c3=N)cc(-c3ccc(F)cc3C(F)(F)F)c2F)cc(OC)c1 [Example 108, N-(3,5-Dimethoxybenzyl)-2,4′-difluoro-5-((2-imino-3-methyl-2,3-dihydro-1H-imidazol-1-yl)methyl)-2′-(trifluoromethyl)-[1,1′-biphenyl]-3-carboxamide] | 310 | < 0.1 |  |  | 
Cc1cc([C@@H](NC(=O)c2cc(CN3CCCC3=N)cc(-c3cn(C)nc3C(F)(F)F)c2)C2CC2)ccc1F [Example 337, (S)—N-(Cyclopropyl(4-fluoro-3-methylphenyl)methyl)-3-((2-iminopyrrolidin-1-yl)methyl)-5-(1-methyl-3-(trifluoromethyl)-1H-pyrazol-4-yl)benzamide] | < 100 | < 0.1 |  |  | 
CCn1ccn(Cc2cc(C(=O)NCc3cc(OC)cc(OC)c3)cc(-c3ccc(F)cc3C)c2)c1=N [Example 116, N-(3,5-Dimethoxybenzyl)-5-((3-ethyl-2-imino-2,3-dihydro-1H-imidazol-1-yl)methyl)-4′-fluoro-2′-methyl-[1,1′-biphenyl]-3-carboxamide] | 570 | 0.4 |  |  | 
CCOc1c(C(=O)N[C@@H](C)c2ccc(F)c(C)c2)cc(CN2CCOC2=N)cc1-c1cn(C)nc1C(F)(F)F [Example 302, (S)-2-Ethoxy-N-(1-(4-fluoro-3-methylphenyl)ethyl)-5-((2-iminooxazolidin-3-yl)methyl)-3-(1-methyl-3-(trifluoromethyl)-1H-pyrazol-4-yl)benzamide] | < 100 | < 0.1 |  |  | 
COc1ccnc(CNC(=O)c2cc(Cn3ccn(C)c3=N)cc(-c3cc(C)ccc3OC)c2)c1 [Example 10, 5-((2-Imino-3-methyl-2,3-dihydro-1H-imidazol-1-yl)methyl)-2′-m ethoxy-N-((4-methoxypyridin-2-yl)methyl)-5′-methyl-[1,1′-biphenyl]-3-carboxamide] | 2300 | 1.5 |  |  | 
Cn1ccn(Cc2cc(C(=O)NC(CC(=O)O)c3ccc(Cl)c(Cl)c3)nc(-c3ccc(F)cc3C(F)(F)F)c2)c1=N (centres unmarked) [Example 104, 3-(3,4-Dichlorophenyl)-3-(6-(4-fluoro-2-(trifluoromethyl)phenyl)-4-((2-imino-3-methyl-2,3-dihydro-1H-imidazol-1-yl)methyl)picolinamido)propanoic acid] | 14000 | 0.13 |  |  | 
COc1cc(OC)cc(C(NC(=O)c2cc(Cn3ccn(C)c3=N)cc(-c3ccc(F)cc3OC(F)F)c2)C2CC2)c1 (centres unmarked) [Example 63, N-(Cyclopropyl(3,5-dimethoxyphenyl)methyl)-2′-(difluoromethoxy)-4′-fluoro-5-((2-imino-3-methyl-2,3-dihydro-1H-imidazol-1-yl)methyl)-[1,1′-biphenyl]-3-carboxamide] | 460 | 0.1 |  |  | 
Cc1cc([C@@H](NC(=O)c2cc(Cn3ccn(C)c3=N)cc(-c3cn(C)nc3C(F)(F)F)c2)C2CC2)ccc1F [Example 125, (S)—N-(Cyclopropyl(4-fluoro-3-methylphenyl)methyl)-3-((2-imino-3-methyl-2,3-dihydro-1H-imidazol-1-yl)methyl)-5-(1-methyl-3-(trifluoromethyl)-1H-pyrazol-4-yl)benzamide] | 180 |  |  | < 0.1 | 
Cn1ccn(Cc2cc(C(=O)N[C@H](c3ccc(Cl)c(Cl)c3)C3CC3)cc(-c3ncc(F)cc3C(F)(F)F)c2)c1=N [Example 187] | 440 | < 0.1 |  |  | 
COc1cc(CNC(=O)c2cc(Cn3ccoc3=N)cc(-c3ccc(F)cc3C)c2)cc(OC)c1 [Example 229, N-(3,5-Dimethoxybenzyl)-4′-fluoro-5-((2-iminooxazol-3(2H)-yl)methyl)-2′-methyl-[1,1′-biphenyl]-3-carboxamide] | 550 |  |  | 0.21 | 
Cc1cnccc1-c1cc(Cn2ccn(C)c2=N)cc(C(=O)NCc2ccc(Cl)c(Cl)c2)c1 [Example 25, N-(3,4-dichlorobenzyl)-3-((2-imino-3-methyl-2,3-dihydro-1H-imidazol-1-yl)methyl)-5-(3-methylpyridin-4-yl)benzamide] | 6100 | 1.3 |  |  | 
Cc1cc([C@@H](NC(=O)c2cc(Cn3ccn(C)c3=N)cc(-c3ncccc3C(F)(F)F)c2)C2CC2)ccc1F [Example 64, (S)—N-(Cyclopropyl(4-fluoro-3-methylphenyl)methyl)-3-((2-imino-3-methyl-2,3-dihydro-1H-imidazol-1-yl)methyl)-5-(3-(trifluoromethyl)pyridin-2-yl)benzamide] | 930 | 0.59 |  |  | 
Cc1cc([C@@H](NC(=O)c2cc(CN3CCOC3=N)cc(-c3cn(C)nc3C(F)(F)F)n2)C2CC2)ccc1F [Example 361, (S)—N-(Cyclopropyl(4-fluoro-3-methylphenyl)methyl)-4-((2-iminooxazolidin-3-yl)methyl)-6-(1-methyl-3-(trifluoromethyl)-1H-pyrazol-4-yl)picolinamide] | 940 | 0.77 |  |  | 
Cc1cc([C@@H](NC(=O)c2cc(Cn3ccccc3=N)cc(-c3cccnc3C(F)(F)F)c2)C2CC2)ccc1F [Example 342, (S)—N-(Cyclopropyl(4-fluoro-3-methylphenyl)methyl)-3-((2-iminopyridin-1(2H)-yl)methyl)-5-(2-(trifluoromethyl)pyridin-3-yl)benzamide] | < 100 | < 0.1 |  |  | 
COc1cc(OC)cc(C(NC(=O)c2cc(Cn3ccn(C)c3=N)cc(-c3ccnn3C(C)C)c2)C2CC2)c1 (centres unmarked) [Example 118, N-(Cyclopropyl(3,5-dimethoxyphenyl)methyl)-3-((2-imino-3-methyl-2,3-dihydro-1H-imidazol-1-yl)methyl)-5-(1-isopropyl-1H-pyrazol-5-yl)benzamide] | 6300 | 0.83 |  |  | 
Cc1cc(CNC(=O)c2cc(Cn3ccn(C)c3=N)cc(-c3ccc(F)cc3C(F)(F)F)c2F)ccc1Cl [Example 111, N-(4-Chloro-3-methylbenzyl)-2,4′-difluoro-5-((2-imino-3-methyl-2,3-dihydro-1H-imidazol-1-yl)methyl)-2′-(trifluoromethyl)-[1,1′-biphenyl]-3-carboxamide] | 300 | < 0.1 |  |  | 
Cn1cc(-c2cc(Cn3ccn(C4CC4)c3=N)cc(C(=O)N[C@H](c3ccc(Cl)c(Cl)c3)C3CC3)c2)c(C(F)(F)F)n1 [Example 159, (S)—N-(cyclopropyl(3,4-dichlorophenyl)methyl)-3-((3-cyclopropyl-2-imino-2,3-dihydro-1H-imidazol-1-yl)methyl)-5-(1-methyl-3-(trifluoromethyl)-1H-pyrazol-4-yl)benzamide] | 190 | < 0.1 |  |  | 
3-(1-Ethyl-3-(trifluoromethyl)-1H-pyrazol-4-yl)-5-((2-iminooxazolidin-3-yl)methyl)-N-(1-methyl-6-oxo-1,6-dihydropyridin-3-yl)methyl)benzamide [Example 293] |  |  | 0.54 |  | 480
